Biological target: nuclear receptor 4A1 (NR4A1) (Homo sapiens, UniProt P22736)
Assay: tryptophan fluorescence quenching with the isolated LBD ([…])
Format: binding

Sequence of nuclear receptor 4A1 (NR4A1) (P22736 360-598 limits assumed): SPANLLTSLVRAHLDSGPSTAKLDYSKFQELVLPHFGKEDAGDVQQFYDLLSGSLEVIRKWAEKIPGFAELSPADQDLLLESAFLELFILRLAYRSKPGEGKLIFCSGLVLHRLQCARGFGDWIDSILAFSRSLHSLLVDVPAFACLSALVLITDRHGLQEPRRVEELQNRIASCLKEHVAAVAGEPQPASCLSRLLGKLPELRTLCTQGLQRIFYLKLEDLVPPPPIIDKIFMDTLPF

## O=C1C[C@@H](c2ccc(O)cc2)Oc2cc(O)cc(O)c21 [naringenin]
  Kd: 4.5 µM
